Laboratory results: patent US9221814B2, “Heterocyclic guanidine F1F0-atpase inhibitors and therapeutic uses thereof” (Lycera Corporation, priority 2012, dated 2015)
Read-outs that look alike come from different tables or passages of the source.

Tests used:
F1F0-ATPase = molecular target: T1, F1F0-ATPase (Bos taurus, UniProt P13621); test: Inhibition of F1F0-ATPase activity in synthesizing ATP (ATP synthesis inhibition); format: biochemical; details: detection limit IC50=16 μM, read-out: ATP Syn IC50
T1 construct: from tissue
Protocol: (§1) Exemplary compounds described in above Examples were tested for activity against F1F0-ATPase by measuring the ability of the compounds to inhibit ATP synthesis. In addition, the compounds were assessed for cytotoxicity in Ramos cells. Inhibition of F1F0-ATPase activity in synthesizing ATP and cytotoxicity in Ramos cells were measured according to the procedures described in K. M. Johnson et al. Chemistry & Biology 2005, 12, 485-496.

Ramos cells = test: Cytotoxicity in Ramos cells; format: cell-based; details: detection limit EC50=16 μM, read-out: Ramos Cell EC50
Protocol: as §1

| SMILES | IC50 (F1F0-ATPase) | EC50 (Ramos cells) | EC50 (Ramos cells; Homo sapiens) |
| --- | --- | --- | --- |
| CCOCCCN/C(=N/C(=O)c1cnoc1C)Nc1cc(-c2ccc(C)c(F)c2)n[nH]1 [Compound A-106] | 5 to 16 µM | > 16 µM | – |
| Cn1cc(C(=O)/N=C(/Nc2cc(F)cc(Cl)c2)Nc2cc(-c3cc(O)ccc3Cl)n[nH]2)c(C(F)(F)F)n1 [Compound A-183] | < 5 µM | 5 to 16 µM | – |
| Cc1oncc1C(=O)/N=C(\Nc1cc(-c2cc(F)cc(F)c2)n[nH]1)NC(C)C [Compound A-77] | 5 to 16 µM | > 16 µM | – |
| Cc1oncc1C(=O)N=C(Nc1cc(-c2cc(F)cc(Cl)c2)n[nH]1)NC1CCCC1 [Compound A-97] | < 5 µM | – | < 5 µM |
| COc1ccc(-c2cc(N/C(=N\C(=O)c3cn(C)nc3C(F)(F)F)Nc3ccc(F)cc3F)[nH]n2)cc1F [Compound A-161] | < 5 µM | > 16 µM | – |
| O=C(/N=C(\Nc1cc(C(F)(F)F)n[nH]1)NC1CCOCC1)c1ccc(Cl)s1 [Compound A-209] | < 5 µM | < 5 µM | – |
| Cc1nc(C(=O)/N=C(\Nc2cc(-c3ccc(F)cc3)[nH]n2)NC(C)(C)C)c(C(F)(F)F)o1 [Compound A-119] | < 5 µM | 5 to 16 µM | – |
| Cc1cc(C(=O)/N=C(/NCC(C)C)Nc2cc(-c3cc(F)cc(F)c3)[nH]n2)c(C(F)(F)F)o1 [Compound A-116] | < 5 µM | < 5 µM | – |
| COc1cccc(CN/C(=N/C(=O)c2ccn(C)n2)Nc2cc(-c3ccc(F)cc3)n[nH]2)c1 [Compound A-45] | 5 to 16 µM | 5 to 16 µM | – |
| Cn1cc(C(=O)N=C(Nc2cc(-c3ccc(O)cc3F)n[nH]2)Nc2ccc(F)cc2F)c(C(F)(F)F)n1 [Compound A-4] | 5 to 16 µM | – | < 5 µM |
| Cn1nc(C(C)(C)C)cc1C(=O)/N=C(\Nc1cc(-c2ccc(Cl)cc2)n[nH]1)NC1CCCC1 [Compound A-74] | < 5 µM | < 5 µM | – |
| COc1ccc(-c2cc(N/C(=N\C(=O)c3cn(C)nc3C(F)(F)F)NC(C)(C)C)n[nH]2)cc1F [Compound A-128] | 5 to 16 µM | < 5 µM | – |
| Cn1cc(C(=O)/N=C(/NCC(C)(C)C)Nc2cc(-c3ccc(O)c(F)c3)[nH]n2)c(C(F)(F)F)n1 [Compound A-135] | 5 to 16 µM | < 5 µM | – |
| Cc1ccc(-c2cc(N/C(=N\C(=O)c3cnoc3C)NC3CCC3)[nH]n2)cc1F [Compound A-94] | < 5 µM | 5 to 16 µM | – |
| Cc1cc(C(=O)/N=C(/Nc2cc(F)cc(Cl)c2)Nc2c(C)c(C(F)(F)F)nn2CCO)on1 [Compound A-226] | < 5 µM | – | 5 to 16 µM |
| Cn1cc(C(=O)/N=C(\Nc2cc(F)cc(Cl)c2)Nc2cc(-c3ccc(O)cc3F)n[nH]2)c(C(F)(F)F)n1 [Compound A-5] | < 5 µM | < 5 µM | – |
| CCOC(=O)NC1CCC(N/C(=N\C(=O)c2cc(C)oc2C(F)(F)F)Nc2ccccc2OC)CC1 (stereo not shown) [Compound A-213] | < 5 µM | – | > 16 µM |
| CC(C)c1ccc(N/C(=N/C(=O)c2cn(C)nc2C(F)(F)F)Nc2cc(-c3ccc(O)c(F)c3)n[nH]2)cc1 [Compound A-175] | 5 to 16 µM | < 5 µM | – |
| CC(C)CN/C(=N/C(=O)c1cn(C)nc1C(F)(F)F)Nc1n[nH]c2cc(Cl)ccc12 [Compound A-201] | < 5 µM | > 16 µM | – |
| Cc1cc(C(=O)/N=C(\Nc2cc(-c3ccc(F)cc3)n[nH]2)NC(C)C)c(C(F)(F)F)o1 [Compound A-195] | < 5 µM | 5 to 16 µM | – |
| CC(C)CNC(=NC(=O)c1cn(C)nc1C(F)(F)F)Nc1cc(-c2cc(O)ccc2Cl)n[nH]1 [Compound A-182] | < 5 µM | – | 5 to 16 µM |
| Cc1cc(N/C(=N\C(=O)c2cc(C)oc2C(F)(F)F)NC(C)C)n[nH]1 [Compound A-112] | > 16 µM | > 16 µM | – |
| Cc1cc(C(=O)/N=C(/NCC(C)C)Nc2cc(-c3ccc(F)cc3)n[nH]2)c(C)o1 [Compound A-192] | < 5 µM | 5 to 16 µM | – |
| Cn1cc(C(=O)/N=C(\Nc2cc(-c3ccc(O)c(F)c3)n[nH]2)Nc2ccc(F)cc2Cl)c(C(F)(F)F)n1 [Compound A-153] | < 5 µM | < 5 µM | – |
| Cc1cc(C(=O)/N=C(/Nc2cc(F)cc(Cl)c2)Nc2cc(-c3cc(F)cc(F)c3)[nH]n2)c(C(F)(F)F)o1 [Compound A-115] | < 5 µM | 5 to 16 µM | – |

| SMILES | IC50 (F1F0-ATPase) | EC50 (Ramos cells) | EC50 (Ramos cells; Homo sapiens) |
| --- | --- | --- | --- |
| COc1ccc(-c2cc(N/C(=N\C(=O)c3cn(C)nc3C(F)(F)F)Nc3cc(Cl)ccc3F)[nH]n2)cc1F [Compound A-160] | 5 to 16 µM | > 16 µM | – |
| CCOC(=O)NC1CCC(N/C(=N\C(=O)c2cc(C)oc2C(F)(F)F)Nc2ccccc2C)CC1 (stereo not shown) [Compound A-216] | < 5 µM | – | 5 to 16 µM |
| Cc1cc(N/C(=N\C(=O)c2cc(C)oc2C(F)(F)F)NCC(C)(C)C)n[nH]1 [Compound A-110] | 5 to 16 µM | > 16 µM | – |
| Cc1cc(C(=O)/N=C(\Nc2ccc(C(F)(F)F)nc2)Nc2cccc(C(F)(F)F)c2)on1 [Compound A-233] | < 5 µM | – | < 5 µM |
| CC(C)CNC(=NC(=O)c1cn(C)nc1C(F)(F)F)Nc1n[nH]c2cncc(F)c12 [Compound A-143] | > 16 µM | – | 5 to 16 µM |
| CC(C)(C)N/C(=N/C(=O)c1ccc(Cl)s1)Nc1cc(C(F)(F)F)n[nH]1 [Compound A-211] | < 5 µM | < 5 µM | – |
| COc1ccc(-c2cc(N/C(=N\C(=O)c3cn(C)nc3C(F)(F)F)Nc3ccc(C(C)(C)C)cc3)[nH]n2)cc1F [Compound A-148] | 5 to 16 µM | 5 to 16 µM | – |
| Cc1cc(C(=O)/N=C(\Nc2cc(-c3cc(F)cc(F)c3)n[nH]2)NC2CCCC2)n(C)n1 [Compound A-82] | < 5 µM | 5 to 16 µM | – |
| CCC(C)N/C(=N\C(=O)c1cn(C)nc1C(F)(F)F)Nc1cc(-c2cc(F)cc(F)c2)n[nH]1 (stereo not shown) [Compound A-33] | < 5 µM | < 5 µM | – |
| Cc1ccc(-c2cc(N/C(=N\C(=O)c3cnoc3C)NC3CCCC3)n[nH]2)cc1F [Compound A-91] | < 5 µM | < 5 µM | – |
| COc1ccc(-c2cc(NC(=NC(=O)c3cn(C)nc3C(F)(F)F)NCC(C)(C)C)[nH]n2)cc1F [Compound A-130] | < 5 µM | – | < 5 µM |
| Cc1cc(C(=O)/N=C(/Nc2cc(F)cc(Cl)c2)Nc2cc(C(F)(F)F)nn2C(C)C)on1 [Compound A-225] | < 5 µM | – | < 5 µM |
| Cc1cc(C(=O)/N=C(/Nc2cc(F)cc(Cl)c2)Nc2cc(C(F)(F)F)nn2C)on1 [Compound A-228] | < 5 µM | – | < 5 µM |
| Cc1oncc1C(=O)/N=C(\Nc1cc(-c2cc(F)cc(F)c2)n[nH]1)NC1CCCC1 [Compound A-78] | < 5 µM | > 16 µM | – |
| CC(C)(C)N/C(=N/C(=O)c1nccs1)Nc1cc(C(F)(F)F)n[nH]1 [Compound A-35] | < 5 µM | 5 to 16 µM | – |
| Cn1cc(C(=O)/N=C(\Nc2cc(-c3cc(O)ccc3F)n[nH]2)NC(C)(C)C)c(C(F)(F)F)n1 [Compound A-178] | 5 to 16 µM | 5 to 16 µM | – |
| Cn1cc(C(=O)/N=C(/Nc2cccc(F)c2)Nc2cc(-c3ccc(O)cc3F)[nH]n2)c(C(F)(F)F)n1 [Compound A-139] | < 5 µM | < 5 µM | – |
| COc1ccc(-c2cc(N/C(=N\C(=O)c3cn(C)nc3C(F)(F)F)NCC(C)C)n[nH]2)cc1F [Compound A-133] | < 5 µM | < 5 µM | – |
| CC(C)(C)N/C(=N/C(=O)c1ccno1)Nc1cc(-c2ccc(F)cc2)n[nH]1 [Compound A-38] | 5 to 16 µM | 5 to 16 µM | – |
| COCC(C)NC(=NC(=O)c1cnoc1C)Nc1cc(-c2ccc(Cl)cc2)n[nH]1 (stereo not shown) [Compound A-75] | 5 to 16 µM | – | > 16 µM |
| Cn1cc(C(=O)N=C(Nc2cc(-c3ccc(O)c(F)c3)n[nH]2)Nc2ccccc2Cl)c(C(F)(F)F)n1 [Compound A-171] | < 5 µM | – | < 5 µM |
| Cc1nnsc1C(=O)/N=C(\Nc1cc(-c2ccc(F)cc2)[nH]n1)NC1CCCC1 [Compound A-122] | > 16 µM | > 16 µM | – |
| COc1ccc(-c2cc(N/C(=N\C(=O)c3cn(C)nc3C(F)(F)F)Nc3ccc(F)cc3)[nH]n2)cc1F [Compound A-156] | < 5 µM | > 16 µM | – |
| CCOCCCN/C(=N/C(=O)c1cc(C)oc1C(F)(F)F)Nc1cc(-c2cc(F)cc(F)c2)n[nH]1 [Compound A-200] | < 5 µM | 5 to 16 µM | – |
| COC[C@H](C)N/C(=N/C(=O)c1cc(C(C)(C)C)nn1C)Nc1cc(-c2ccc(F)cc2)n[nH]1 [Compound A-50] | < 5 µM | < 5 µM | – |
